Measurements reported in US20180177734A1, “PHARMACEUTICAL FORMULATIONS COMPRISING TENOFOVIR AND EMTRICITABINE” (priority 2015, published 2018).
Where two headings read alike, the source gives them in different places.

Settings: 40° C./75% RH open, 60° C. closed

In the case of `CC(C)OC(=O)[C@H](C)N[P@](=O)(CO[C@H](C)Cn1cnc2c(N)ncnc21)Oc1ccccc1` [tenofovir alafenamide hemifumarate], the “rate of degradation of tenofovir alafenamide hemifumarate” value (in the presence of both emtricitabine and rilpivirine HCl) is reported as “further increased” and the “rate of degradation of tenofovir alafenamide hemifumarate” value (in the presence of emtricitabine) is reported as “increased”.
